Results on 89 compounds are retold here after a melting point compilation (Tetko et al.; mined from patent text by program, amines drawn as free bases though some values may be those of a salt).

The structures appear in SMILES notation.

One may read the melting point as the temperature of the solid-liquid transition. In the case of `COc1ccc2c(c1)CCC1C2CCC2(C)C(NCCCCCCCCN)CCC12` (centres undefined), the melting point fell in the range of 47.5 to 49 °C.
As for `COCc1c2c(n(Cc3ccccc3)c1-c1ccccc1)C(C)CN(Cc1ccccc1)C2` (centres undefined), the melting point is 140 to 141 °C.
The compound `CC[C@@H]1O[C@](/C=C/C2CC2)(C(F)(F)F)c2cc(Cl)ccc2NC1=O` (relative stereo) displayed a melting point of 147 to 148 °C.
`Cc1cccc(CC(=O)O)c1OCCCc1cn(-c2ccc(Cl)cn2)nc1C(C)(C)C` displayed a melting point of 112 to 113 °C.
Then `CCOC(=O)C1CCN(c2nnc(-c3ccc(C)cc3)c(-c3ccc(C)cc3)n2)CC1`, with 102 to 104 °C.
`CCNc1nc(NCC)nc(NCC)n1` had a melting point of 74 °C.
Compound `CC(C)C(C#N)c1ccc(O)c(O)c1` (centres undefined) had a melting point of 134 to 136 °C.
On to `CC(C)(C)OC(=O)NCC(O)c1cccs1` (centres undefined), for which the melting point lay within 101 to 102 °C.
For `CCC(CC)Nc1ccc2c(c1)N1CCCN=C1S2`, the melting point was 114 °C.
In turn, `Cc1ccc(C2COc3c(C)c(C)cc(C)c32)nc1` (centres undefined) yielded a melting point of 69 to 70 °C.
Compound `CC(Oc1ncn(-c2cccc(Br)c2)n1)C(N)=O` (centres undefined) gave a melting point of 141 to 144 °C.
In turn, `COc1cc(OC)cc(N2CCN(C(=S)Nc3cc(C)c(C)cc3OC)CC2)c1` displayed a melting point of 128 to 129 °C.
Turning to `OCCCCCCC(O)C(c1ccc(Cl)cc1Cl)n1ccnc1` (centres undefined), the melting point lay within 74 to 76 °C.
`Fc1ccc2[nH]c3c(c2c1)CN(CCc1ccncc1)CC3` registered a melting point of 233 to 235 °C.
Turning to `O=C(O)C1(c2ccc3c(c2)OCO3)CC(F)(F)C1(F)F` (centres undefined), the melting point was 168 to 169 °C.
`Cc1cccc(CCOc2nc(N)c3ncn(C4OC(CO)C(O)C4O)c3n2)c1` (centres undefined) had a melting point of 102 to 108 °C.
`COC(=O)CCCc1cc2nc(Cl)ccc2n1S(=O)(=O)c1cc(F)cc(F)c1` had a melting point of 90 °C.
The compound `COc1cc(C=C(C)[N+](=O)[O-])ccc1OCC(=O)O` gave a melting point of 116 to 117 °C.
In turn, `CC(C)(C)OC(=O)NN(C(=O)OC(C)(C)C)C1(c2cccnc2)CCCCC1=O` (centres undefined) showed a melting point of 123 to 125 °C.
Then `CC(C)=CCNC(=O)CCC(NC(=O)C=Cc1ccco1)C(=O)NCC=C(C)C` (centres undefined), with 199 to 203 °C; and `Cc1[nH]c(C)c(-c2ccc(Oc3ccc(C(F)(F)F)cc3)cc2)c(=O)c1Br`, with 304 to 305 °C; and `CCc1cccc(C)c1CNc1cc(C(=O)O)nc2c1nc(C)n2C`, with 235 to 238 °C.
Then `Cc1nn(-c2ccccc2)c2[nH]c(=O)c3ccccc3c12`, with 302 to 304 °C.
Turning to `C=Cc1ccc(CNc2ccc(Nc3ccccc3)cc2)cc1`, the melting point was determined as 143 °C.
With `CN(C)C1CCN(C(=O)c2ccc(-c3[nH]nc4c3C(=O)c3c(NC(=O)NN5CCOCC5)cccc3-4)s2)CC1` the figure was 185 to 186 °C.
In turn, `O=C(c1ccc(F)c(F)c1)N1CCCC(c2noc(-c3ncc[nH]3)n2)C1` (centres undefined) gave a melting point of 148 to 149 °C.
The compound `CCOC(=O)c1c(N2CCCC2)c2cccnc2n(C)c1=O` came in with a melting point of 118 to 120 °C.
Consider `COc1ccc(C2CNCc3cc(N)ccc32)cc1OC` (centres undefined), for which the melting point was 157 to 159 °C.
Then `Cc1ccc(-c2ncc(O)nc2-c2ccc(C)cc2)cc1`, with 250 to 254 °C.
Then `CCCCCS(=O)(=O)NC(=O)/C=C/c1ccc(OCCOC)cc1Oc1ncc(NC(C)=O)cc1C`, with 188 °C; and `CCCCCNC(=O)n1cc(F)c(N)nc1=O`, with 289 to 292 °C.
Then `COP(=O)(NNC(C)(C)C)OC`, with 61 to 68 °C; and `CC1(C)CC(OC(=O)Nc2ccccc2)CC(C)(C)N1OC(=O)Nc1ccccc1`, with 188 to 190 °C.
Take `Cc1ncsc1NC(=O)Nc1ccc(-n2nc(C(F)(F)F)cc2C2CC2)cc1`: the melting point is 124 to 126 °C.
In turn, `C[Si](C)(C)CCOCn1cc(C#N)c(=O)c2cc(N)c(N)cc21` showed a melting point greater than 300 °C.
Take `CC(C)(C)Nc1nc(C#N)c(C#N)nc1Cl`: the melting point lay in the range of 169 to 173 °C.
In the case of `CC1(c2ccc([N+](=O)[O-])cc2)C(=O)Nc2cc(Cl)cc(Cl)c2C1=O` (centres undefined), the melting point was in the range of 264 to 265 °C.
Turning to `COc1cc(C#Cc2ccccc2)c(OC)cc1C#Cc1ccccc1`, the melting point is 172 to 174 °C.
`CCSc1cc(S(N)(=O)=O)sc1SCC` displayed a melting point of 82 to 84 °C.
Then `CC(C)(C)OC(=O)COc1cc(NC(=O)OC(C)(C)C)c(N)cc1-c1ccc(F)cc1`, with 30 to 33 °C.
The compound `O=C(O)c1ccc(-c2ccc3c(c2)CCN(CCN2CCCC2)C3)cc1` showed a melting point of 269 to 271 °C.
`CC(C(=O)O)=C(NC(=O)C(F)(F)F)c1ccccc1`: the melting point was 140 °C.
Consider `CSC(=C[N+](=O)[O-])NCCSCc1cc(C)c(CN(C)C)s1`, for which the melting point lay within 69 to 71 °C.
`CC1(CO)Cc2c(cc(C(C)(C)C)c(O)c2C(C)(C)C)O1` (centres undefined) came in with a melting point of 126 to 128 °C.
For the compound `Cc1nc2c(N)nc3c(c2n1CCOCCS(C)(=O)=O)CCCC3`, the melting point fell in the range of 173 to 175 °C.
Take `O=C1N(CC2CCCO2)c2cc3c(cc2C12COc1cc4c(cc12)CCO4)OCCO3` (centres undefined): the melting point lay within 220 to 225 °C.
As for `c1ccc2[nH]c(SSCCSSc3nc4ccccc4[nH]3)nc2c1`, the melting point was in the range of 190 to 192 °C.
Then `Nc1ccc(C(=O)Nc2ccccc2-c2nnn[nH]2)cc1`, with 202 to 204 °C; and `COc1cc(CN2CCN(C(=O)c3ccc4c(c3)C(=O)c3ccccc3C4=O)CC2)cc(OC)c1OC`, with 158 to 160 °C; and `Cc1cc2c(cc1C(F)(F)F)NC(=O)CC(c1cccc(-c3ccnc(CN(C)CC(C)C)c3)c1)=N2`, with 188 °C.
Take `OCc1ccccc1-c1nc(-c2ccc(Cl)cc2)n[nH]1`: the melting point was 252 to 254 °C.
For the compound `Cc1ccc(-c2c(-c3ccc(S(N)(=O)=O)cc3)cnn(-c3ccc(F)c(F)c3)c2=O)cc1F`, the melting point was 198 to 200 °C.
Take `CCN(CC)c1ccc([N+](=O)[O-])c(N2CCN(C(C)=O)CC2)n1`: the melting point was 120 °C.
As to `CC(=O)Nc1cccc(-n2nc(C#N)c(=O)n(Cc3ccc(Cl)cc3)c2=O)c1`, the melting point worked out at 196 °C.
In turn, `COc1ccc(-c2cccc(COCCc3cccc(NS(=O)(=O)C(F)(F)F)c3)c2)cc1` showed a melting point of 88 to 90 °C.
In turn, `Cc1cc(NC(=O)C(CS)Cc2ccccc2)cc(C(=O)O)c1` (centres undefined) showed a melting point of 177 to 178 °C.
`CC(C)(C)OC(=O)c1ccc(C(=O)OC(C)(C)C)cc1` showed a melting point of 117 to 118 °C.
`CC(C)C(C#N)Nc1ccc(C(F)(F)F)cc1Cl` (centres undefined) had a melting point of 63.2 to 64.8 °C.
For `COC1=C(OC)C(=O)C(CN2CCN(C(=S)SC)CC2)=C(C)C1=O`, the melting point is 115 to 116 °C.
With `CC(C)(C)C(=O)OCOP(=O)(CCCCc1ccccc1)CC(=O)O` (centres undefined) the figure was 48 to 50 °C; with `Nc1cc(=O)n(Cc2ccc(Cl)c(Cl)c2)[nH]1`, 159 °C.
Consider `COc1cc(O)cc2c1C(Br)=C(c1ccc(O)cc1)C2=O`, for which the melting point was found to be 210 °C.
Then `CSc1c(F)cc(CC(=O)c2ccccc2)cc1F`, with 71.8 to 71.9 °C; and `Cc1cc(SCC#Cc2ccc(C(F)(F)F)cc2)ccc1OCC(=O)O`, with 130 to 131 °C; and `CCNc1cc(C(C)=O)ccn1`, with 55 to 57 °C.
On to `N#Cc1c(Cl)nc2ccc([N+](=O)[O-])cc2c1Cl`, for which the melting point was 190 to 192 °C.
Then `CCCc1c(OCc2ccccc2C(=O)NCCCCc2cccnc2)ccc(C(C)=O)c1O`, with 135 to 139 °C; and `CCOc1cc2c(cc1S(=O)(=O)NC(=O)NC)C(CNC(=O)N1CC(C)=C(CC)C1=O)CCO2` (centres undefined), with 187 to 188 °C; and `CCCNC(=O)c1cnc2ccccn2c1=O`, with 120 to 122 °C.
As for `CONC1=NC(=O)C(=Cc2cccc(-c3cc(F)c(O)c(C45CC6CC(CC(C6)C4)C5)c3)c2)S1`, the melting point was 286 to 288 °C.
The compound `CCOC(=O)c1cc2ccc3c(c2cc1OC)OC(n1cccc1)=C(C#N)C3c1cccc([N+](=O)[O-])c1` (centres undefined) came in with a melting point of 190 to 191 °C.
The compound `O=C1N=NC(=O)c2c1[nH]c1cc(Cl)ccc21` yielded a melting point greater than 250 °C.
With `CN1C(=O)CN=C(C2CCCCC2)c2ccccc21` the figure was 98 to 100 °C.
For `O=C1CCC(c2ccc(N=C(CCCc3ccccc3)c3ccc(O)cc3O)cc2)=NN1`, the melting point is 274 to 280 °C.
On to `Clc1cc(N2CCCCCC2)nc(-c2ccccc2)n1`, for which the melting point was 64 to 66 °C.
With `CC(=O)Nc1nc(CCc2ccc(CO)cc2)c(Cc2ccc(S(C)(=O)=O)cc2)s1` the figure was 210 to 211 °C; with `O=C(O)c1ccc(-c2coc(-c3ccc(C(F)(F)F)cc3)n2)cc1`, 294 to 295 °C.
Then `CCOC(=O)c1cnc2c(cnn2-c2ccccc2)c1N(Cc1cccnc1)S(=O)(=O)c1ccc(OC)cc1`, with 89 to 91 °C.
`CC(C)C(OCCc1ccc(-c2ccc(Cl)cc2)cc1)C(=O)O` (centres undefined) registered a melting point of 91 to 92 °C.
As for `CN(C)c1nc2sc3c(NCc4cccnc4)ncnc3c2c2c1CCC(C)(C)C2`, the melting point was 208 to 209 °C.
The compound `CCCCCCCCCCCCCCCCCCC1CNc2ccc(C(=O)O)cc21` (racemic) registered a melting point of 84 to 87 °C.
Regarding `Cc1ccc(OCCCCCNc2cccc3c2C(=O)c2cccc4[nH]nc-3c24)cc1`, the melting point was 122 to 125 °C.
Regarding `CC(C)NS(=O)(=O)c1ccc(N)c(C(=O)N2CCN(C)CC2)c1`, the melting point was in the range of 118 to 122 °C.
As for `CCOC(=O)CCCOc1cccc2c1SCCC2`, the melting point was determined as 31 °C.
With `Cc1nc[nH]c1CSCCNC(=O)NCCSCc1[nH]cnc1C` the figure was 225 to 228 °C.
With `CCCCCCN(Cc1ccc2ccccc2n1)C(Nc1cc(C(C)(C)C)c(O)c(C(C)(C)C)c1)=C1C(=O)OC(C)(C)OC1=O` the figure was 161 to 163 °C.
Turning to `CCOC(=O)C(C)(C)Oc1ccc(-c2ccc(CCNC(=O)c3cc(OC)c(OC)c(OC)c3)cc2)cc1`, the melting point was less than 20 °C.
Then `CCOC(=O)NC(=N)NC#N`, with 193 to 194 °C; and `CCOc1ccc(C(=O)c2ccc(OC)c(Cl)c2Cl)c(F)c1`, with 94 to 96 °C.
